Experimental data taken from article PMC8119466, “A screen of FDA-approved drugs identifies inhibitors of protein tyrosine phosphatase 4A3 (PTP4A3 or PRL-3)” (Scientific Reports, 2021).
Counter-ions that a name gives are not always drawn. Like-named read-outs stand apart in the source and are kept apart here.

Legend:
Assay type in all cases: biochemical
recombinant PRL-1 = molecular target: T1, recombinant PRL-1 (Homo sapiens, UniProt Q93096); test: In vitro phosphatase assay (DiFMUP hydrolysis), PRL-1; further: test concentration or dose not given here
T1 construct: 6xHis (N, cleaved yes); made in house; host or cells: E. coli One Shot BL21 Star
T1 sequence (Q93096 1-173): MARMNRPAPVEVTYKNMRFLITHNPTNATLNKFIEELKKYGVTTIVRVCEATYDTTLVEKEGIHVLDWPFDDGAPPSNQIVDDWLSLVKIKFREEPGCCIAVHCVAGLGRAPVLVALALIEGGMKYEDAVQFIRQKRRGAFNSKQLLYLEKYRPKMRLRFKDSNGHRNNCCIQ

recombinant PRL-2 = molecular target: T2, recombinant PRL-2 (Homo sapiens, UniProt Q12974); test: In vitro phosphatase assay (DiFMUP hydrolysis), PRL-2;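 further: PRL-2 activity read as DiFMUP hydrolysis after 20 min at room temperature with drug, enzyme first pre-reduced at 4 °C for 20 min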
T2 construct: 6xHis (N, cleaved yes); made in house; host or cells: E. coli One Shot BL21 Star
T2 sequence (Q12974 1-167): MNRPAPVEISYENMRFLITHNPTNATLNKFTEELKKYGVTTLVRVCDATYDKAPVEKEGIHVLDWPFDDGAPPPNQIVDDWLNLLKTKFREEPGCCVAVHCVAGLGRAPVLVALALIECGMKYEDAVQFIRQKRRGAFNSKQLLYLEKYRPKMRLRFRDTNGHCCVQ
Experimental: Briefly, protein was diluted in reaction buffer and allowed to incubate at 4 °C for 20 min to allow for full reduction of the active site. DiFMUP, drug, and protein were added, and plates were incubated for 20 min at room temperature. Fluorescence intensities were measured on a Cytation 5 plate reader (Biotek) at an EX:360 nm and EM:460 nm. […] Inhibition selectivity for PRLs over a panel of other phosphatases was determined using PhosphataseProfiler (Eurofins, Cat # PP260).

recombinant PRL-3 = molecular target: T3, recombinant PRL-3 (Homo sapiens, UniProt O75365); test: In vitro phosphatase assay (DiFMUP hydrolysis), PRL-3; further: test concentration or dose not given here
T3 construct: 6xHis (N, cleaved yes); made in house; host or cells: E. coli One Shot BL21 Star

[1] = FDA-approved drug screen, compared to DMSO
[2] = FDA-approved drug screen, activity compared to DMSO

T3 sequence (O75365 whole entry): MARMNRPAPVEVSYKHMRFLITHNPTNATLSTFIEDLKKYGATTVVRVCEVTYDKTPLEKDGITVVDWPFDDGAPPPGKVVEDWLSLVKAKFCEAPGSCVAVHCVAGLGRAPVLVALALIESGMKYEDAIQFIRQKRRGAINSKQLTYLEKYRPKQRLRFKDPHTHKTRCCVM

| Molecule | % Phosphatase Activity (compared to DMSO) PRL-1 (recombinant PRL-1; [1]) [%] | % Phosphatase Activity (compared to DMSO) PRL-2 (recombinant PRL-2; [1]) [%] | % Phosphatase Activity (compared to DMSO) PRL-3 (recombinant PRL-3; [1]) [%] | also measured |
| --- | --- | --- | --- | --- |
| Oc1c(I)cc(I)c2cccnc12 [Diiodohydroxyquinoline] | 89 | 108 | 81 | – |
| CN(C)C(=O)c1cc2cnc(Nc3ccc(N4CCNCC4)cn3)nc2n1C1CCCC1 [LEE011] | 103 | 84 | 98 | – |
| C[C@H](NCc1ccc(OCc2cccc(F)c2)cc1)C(N)=O [Safinamide Mesylate] | 103 | 112 | 86 | – |
| CC(C)NCC(O)c1ccc(NS(C)(=O)=O)cc1 (stereo not drawn) [Sotalol] | – | – | – | % Phosphatase Activity (compared to DMSO) PRL-1 (recombinant PRL-1; [2]): 98%; % Phosphatase Activity (compared to DMSO) PRL-2 (recombinant PRL-2; [2]): 97%; % Phosphatase Activity (compared to DMSO) PRL-3 (recombinant PRL-3; [2]): 78% |
| CN1CCN2c3ncccc3Cc3ccccc3C2C1 (stereo not drawn) [Mirtazapine] | 92 | 114 | 98 | – |
| CN1C(=O)CCS(=O)(=O)C1c1ccc(Cl)cc1 (stereo not drawn) [Chlormezanone] | 81 | 127 | 91 | – |
| NS(=O)(=O)c1cc2c(cc1Cl)N=CNS2(=O)=O [Chlorothiazide] | 105 | 80 | 76 | – |
| Oc1c(Br)cc(Br)c2cccnc12 [Broxyquinoline] | 94 | 101 | 72 | – |
| COc1ccc([C@@H]2Sc3ccccc3N(CCN(C)C)C(=O)[C@@H]2OC(C)=O)cc1 [Diltiazem HCl] | 94 | 111 | 124 | – |
| CCOC(=O)C1=C(C)NC(C)=C(C(=O)OC)C1c1cccc([N+](=O)[O-])c1 (stereo not drawn) [Nitrendipine] | 85 | 84 | 68 | – |
| NC(=O)c1ncn([C@@H]2O[C@H](CO)[C@@H](O)[C@H]2O)c1N [Acadesine] | 91 | 100 | 95 | – |
| COCCCN1CCC(NC(=O)c2cc(Cl)c(N)c3c2OCC3)CC1 [Prucalopride] | 97 | 113 | 85 | – |
| Cl.c1ccc(C2CN3CCSC3=N2)cc1 (stereo not drawn) [Tetramisole HCl] | – | – | – | % Phosphatase Activity (compared to DMSO) PRL-1 (recombinant PRL-1): 97%; % Phosphatase Activity (compared to DMSO) PRL-2 (recombinant PRL-2): 83%; % Phosphatase Activity (compared to DMSO) PRL-3 (recombinant PRL-3): 102% |
| CN1CCC(=C2c3ccccc3CCc3cccnc32)CC1 [Azatadine dimaleate] | 103 | 108 | 84 | – |
| C[C@H](Nc1ncnc2nc[nH]c12)c1cc2cccc(Cl)c2c(=O)n1-c1ccccc1 [IPI-145 (INK1197)] | 107 | 88 | 97 | – |
| O=c1ccc2ccccc2o1 [Coumarin] | 92 | 98 | 76 | – |
| CN(C)CC/C=C1/c2ccccc2COc2ccc(CC(=O)O)cc21 [Olopatadine HCl] | 116 | 121 | 74 | – |
| NS(=O)(=O)c1cc2c(cc1Cl)NCNS2(=O)=O [Hydrochlorothiazide] | 97 | 122 | 76 | – |
| CC(=O)OCC(=O)[C@H]1CC[C@H]2[C@@H]3CCC4=CC(=O)CC[C@]4(C)[C@H]3CC[C@]12C [Deoxycorticosterone acetate] | 84 | 83 | 74 | – |
| CCCc1nc(C(C)(C)O)c(C(=O)OCc2oc(=O)oc2C)n1Cc1ccc(-c2ccccc2-c2nnn[nH]2)cc1 [Olmesartan Medoxomil] | 97 | 93 | 76 | – |

| Molecule | % Phosphatase Activity (compared to DMSO) PRL-1 (recombinant PRL-1; [1]) [%] | % Phosphatase Activity (compared to DMSO) PRL-2 (recombinant PRL-2; [1]) [%] | % Phosphatase Activity (compared to DMSO) PRL-3 (recombinant PRL-3; [1]) [%] | also measured |
| --- | --- | --- | --- | --- |
| CC(C)NCC(O)c1ccc(O)c(O)c1.Cl (stereo not drawn) [Isoprenaline HCl] | 114 | 124 | 94 | – |
| CCOC(=O)[C@H](CCc1ccccc1)N[C@H]1CCc2ccccc2N(CC(=O)O)C1=O [Benazepril HCl] | 91 | 80 | 78 | – |
| C[C@]12C=CC(=O)C=C1CC[C@@H]1[C@@H]2C(=O)C[C@@]2(C)[C@H]1CC[C@]2(O)C(=O)CO [Prednisone] | 98 | 91 | 80 | – |
| CCN(C)C(=O)Oc1cccc([C@H](C)N(C)C)c1 [Rivastigmine] | 98 | 94 | 92 | – |
| COc1ccccc1Oc1c(NS(=O)(=O)c2ccc(C(C)(C)C)cc2)nc(-c2ncccn2)nc1OCCO [Bosentan Hydrate] | 87 | 96 | 93 | – |
| CC(C)OC(=O)[C@H](C)N[P@](=O)(OC[C@H]1O[C@@H](n2ccc(=O)[nH]c2=O)[C@](C)(F)[C@@H]1O)Oc1ccccc1 [Sofosbuvir (PSI-7977, GS-7977)] | – | – | – | % Phosphatase Activity (compared to DMSO) PRL-1 (recombinant PRL-1; [2]): 87%; % Phosphatase Activity (compared to DMSO) PRL-2 (recombinant PRL-2; [2]): 96%; % Phosphatase Activity (compared to DMSO) PRL-3 (recombinant PRL-3; [2]): 89% |
| Cc1ccc(Nc2nccc(N(C)c3ccc4c(C)n(C)nc4c3)n2)cc1S(N)(=O)=O [Pazopanib] | 97 | 100 | 89 | – |
| CC[C@@]1(O)C(=O)OCc2c1cc1n(c2=O)Cc2cc3c(CN(C)C)c(O)ccc3nc2-1 [Topotecan HCl] | – | – | – | % Phosphatase Activity (compared to DMSO) PRL-1 (recombinant PRL-1; [2]): 168%; % Phosphatase Activity (compared to DMSO) PRL-2 (recombinant PRL-2; [2]): 192%; % Phosphatase Activity (compared to DMSO) PRL-3 (recombinant PRL-3; [2]): 140% |
| Nc1c(CC(=O)[O-])cccc1C(=O)c1ccccc1.O.[Na+] [Amfenac Sodium Monohydrate] | 89 | 108 | 67 | – |
| O=c1oc2cc(O)ccc2s1 [Tioxolone] | – | – | – | % Phosphatase Activity (compared to DMSO) PRL-1 (recombinant PRL-1; [2]): 102%; % Phosphatase Activity (compared to DMSO) PRL-2 (recombinant PRL-2; [2]): 124%; % Phosphatase Activity (compared to DMSO) PRL-3 (recombinant PRL-3; [2]): 92% |
| CCCC(=O)O[C@]1(C(=O)COC(C)=O)CC[C@H]2[C@@H]3C[C@H](F)C4=CC(=O)C=C[C@]4(C)[C@@]3(F)[C@@H](O)C[C@@]21C [Difluprednate] | 82 | 76 | 67 | – |
| CC(C)(C(=O)O)c1ccc(C(O)CCCN2CCC(C(O)(c3ccccc3)c3ccccc3)CC2)cc1 (stereo not drawn) [Fexofenadine HCl] | – | – | – | % Phosphatase Activity (compared to DMSO) PRL-1 (recombinant PRL-1): 109%; % Phosphatase Activity (compared to DMSO) PRL-2 (recombinant PRL-2): 92%; % Phosphatase Activity (compared to DMSO) PRL-3 (recombinant PRL-3): 89% |
| COc1cc(/C=C/C(=O)N2CCN(CC(=O)N3CCCC3)CC2)cc(OC)c1OC.O=C(O)/C=C\C(=O)O [Cinepazide maleate] | 112 | 134 | 113 | – |
| O=c1[nH]c2ccccc2n1C1CCN(CCCC(c2ccc(F)cc2)c2ccc(F)cc2)CC1 [Pimozide] | 91 | 106 | 96 | – |
| Spiramycin | – | – | – | % Phosphatase Activity (compared to DMSO) PRL-1 (recombinant PRL-1; [2]): 86%; % Phosphatase Activity (compared to DMSO) PRL-2 (recombinant PRL-2; [2]): 90%; % Phosphatase Activity (compared to DMSO) PRL-3 (recombinant PRL-3; [2]): 68% |
| CCOC(=O)c1ccc(O)cc1 [Ethylparaben] | 105 | 100 | 92 | – |
| [H]/N=C(/N)N[C@H]1[C@H](O)[C@@H](O)[C@H](O[C@@H]2O[C@@H](C)[C@](O)(C=O)[C@H]2O[C@@H]2O[C@@H](CO)[C@H](O)[C@@H](O)[C@@H]2NC)[C@@H](N/C(N)=N\[H])[C@@H]1O [Streptomycin sulfate] | – | – | – | % Phosphatase Activity (compared to DMSO) PRL-1 (recombinant PRL-1; [2]): 105%; % Phosphatase Activity (compared to DMSO) PRL-2 (recombinant PRL-2; [2]): 89%; % Phosphatase Activity (compared to DMSO) PRL-3 (recombinant PRL-3; [2]): 85% |
| Cc1onc(-c2ccccc2)c1C(=O)N[C@@H]1C(=O)N2[C@@H]1SC(C)(C)[C@@H]2C(=O)[O-].O.[Na+] [Oxacillin sodium monohydrate] | 98 | 90 | 83 | – |
| Cc1cccc(Nc2ccncc2S(=O)(=O)NC(=O)NC(C)C)c1 [Torsemide] | – | – | – | % Phosphatase Activity (compared to DMSO) PRL-1 (recombinant PRL-1; [2]): 99%; % Phosphatase Activity (compared to DMSO) PRL-2 (recombinant PRL-2; [2]): 93%; % Phosphatase Activity (compared to DMSO) PRL-3 (recombinant PRL-3; [2]): 77% |
| COc1ccc(C(=O)N2CCCC2=O)cc1 [Aniracetam] | 102 | 104 | 75 | – |
